According to PMC9857510, “Identification of Immune-Active Peptides in Casein Hydrolysates and Its Transport Mechanism on a Caco-2 Monolayer” (Foods, 2023):
Like-named read-outs stand apart in the source and are kept apart here. Residues, ends and D or L forms follow the SMILES beside them. No end group written: not given here.

Columns and labels:
[1] = target: T1, Peptide transporter 1 (Pep T1) (Homo sapiens, UniProt P46059); assay: Absorption mechanism: Gly-Pro pre-incubation (carrier transport); assay type: in vitro ADME; conditions: 10 mM Gly-Pro, 30 min pre-incubation, 2 h transport, vs blank
T1 construct: endogenous in cells; host or cells: Caco-2
T1 sequence (P46059 1-708): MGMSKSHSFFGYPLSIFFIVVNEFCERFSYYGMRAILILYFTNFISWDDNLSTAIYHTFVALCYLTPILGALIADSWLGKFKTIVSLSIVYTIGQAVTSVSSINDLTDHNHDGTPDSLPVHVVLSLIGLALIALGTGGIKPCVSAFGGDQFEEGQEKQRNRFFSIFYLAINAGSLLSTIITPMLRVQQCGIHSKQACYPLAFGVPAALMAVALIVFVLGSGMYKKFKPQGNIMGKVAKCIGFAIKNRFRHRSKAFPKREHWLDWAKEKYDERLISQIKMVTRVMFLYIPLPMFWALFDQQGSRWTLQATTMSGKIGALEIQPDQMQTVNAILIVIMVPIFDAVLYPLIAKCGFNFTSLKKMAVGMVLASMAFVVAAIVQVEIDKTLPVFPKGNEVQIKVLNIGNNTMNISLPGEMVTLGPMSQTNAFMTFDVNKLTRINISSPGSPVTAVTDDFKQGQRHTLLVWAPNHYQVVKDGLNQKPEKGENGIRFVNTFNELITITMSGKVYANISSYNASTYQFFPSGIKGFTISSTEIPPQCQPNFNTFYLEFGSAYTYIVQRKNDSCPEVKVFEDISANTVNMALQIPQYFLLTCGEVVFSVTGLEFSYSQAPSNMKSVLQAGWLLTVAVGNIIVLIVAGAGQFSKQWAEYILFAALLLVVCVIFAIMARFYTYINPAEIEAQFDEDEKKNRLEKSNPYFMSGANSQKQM
Experimental: (§1) After 0.5 mL of 10 mM Gly-Pro, 0.1 mM sodium deoxycholate and 0.025 mM phenylarsine oxide were added to different wells on the AP side, and the Transwell plates were incubated in a CO2 incubator for 30 min and followed by the removal of these compounds. The peptides were then added to the AP side, and Hank’s Balanced Salt Solution (HBSS) buffer was added to the BL side, and samples were collected after 2 h.

Caco-2 cell monolayer [2] = assay: Absorption mechanism: phenylarsine oxide (endocytosis) and sodium deoxycholate (bypass transport) pre-incubation; assay type: in vitro ADME, human
Experimental: as §1

MRP2 = target: T2, MRP2 (Homo sapiens, UniProt Q92887); assay: Peptide efflux: MK-571 sodium salt pre-incubation; assay type: in vitro ADME; conditions: 0.05 mM MK-571 sodium salt, AP-BL, 2 h, vs blank
T2 construct: Multidrug resistance protein (MRP) and P-glycoprotein in Caco-2 cells are energy-dependent efflux transporters; endogenous in cells; host or cells: Caco-2
T2 sequence (Q92887 whole entry): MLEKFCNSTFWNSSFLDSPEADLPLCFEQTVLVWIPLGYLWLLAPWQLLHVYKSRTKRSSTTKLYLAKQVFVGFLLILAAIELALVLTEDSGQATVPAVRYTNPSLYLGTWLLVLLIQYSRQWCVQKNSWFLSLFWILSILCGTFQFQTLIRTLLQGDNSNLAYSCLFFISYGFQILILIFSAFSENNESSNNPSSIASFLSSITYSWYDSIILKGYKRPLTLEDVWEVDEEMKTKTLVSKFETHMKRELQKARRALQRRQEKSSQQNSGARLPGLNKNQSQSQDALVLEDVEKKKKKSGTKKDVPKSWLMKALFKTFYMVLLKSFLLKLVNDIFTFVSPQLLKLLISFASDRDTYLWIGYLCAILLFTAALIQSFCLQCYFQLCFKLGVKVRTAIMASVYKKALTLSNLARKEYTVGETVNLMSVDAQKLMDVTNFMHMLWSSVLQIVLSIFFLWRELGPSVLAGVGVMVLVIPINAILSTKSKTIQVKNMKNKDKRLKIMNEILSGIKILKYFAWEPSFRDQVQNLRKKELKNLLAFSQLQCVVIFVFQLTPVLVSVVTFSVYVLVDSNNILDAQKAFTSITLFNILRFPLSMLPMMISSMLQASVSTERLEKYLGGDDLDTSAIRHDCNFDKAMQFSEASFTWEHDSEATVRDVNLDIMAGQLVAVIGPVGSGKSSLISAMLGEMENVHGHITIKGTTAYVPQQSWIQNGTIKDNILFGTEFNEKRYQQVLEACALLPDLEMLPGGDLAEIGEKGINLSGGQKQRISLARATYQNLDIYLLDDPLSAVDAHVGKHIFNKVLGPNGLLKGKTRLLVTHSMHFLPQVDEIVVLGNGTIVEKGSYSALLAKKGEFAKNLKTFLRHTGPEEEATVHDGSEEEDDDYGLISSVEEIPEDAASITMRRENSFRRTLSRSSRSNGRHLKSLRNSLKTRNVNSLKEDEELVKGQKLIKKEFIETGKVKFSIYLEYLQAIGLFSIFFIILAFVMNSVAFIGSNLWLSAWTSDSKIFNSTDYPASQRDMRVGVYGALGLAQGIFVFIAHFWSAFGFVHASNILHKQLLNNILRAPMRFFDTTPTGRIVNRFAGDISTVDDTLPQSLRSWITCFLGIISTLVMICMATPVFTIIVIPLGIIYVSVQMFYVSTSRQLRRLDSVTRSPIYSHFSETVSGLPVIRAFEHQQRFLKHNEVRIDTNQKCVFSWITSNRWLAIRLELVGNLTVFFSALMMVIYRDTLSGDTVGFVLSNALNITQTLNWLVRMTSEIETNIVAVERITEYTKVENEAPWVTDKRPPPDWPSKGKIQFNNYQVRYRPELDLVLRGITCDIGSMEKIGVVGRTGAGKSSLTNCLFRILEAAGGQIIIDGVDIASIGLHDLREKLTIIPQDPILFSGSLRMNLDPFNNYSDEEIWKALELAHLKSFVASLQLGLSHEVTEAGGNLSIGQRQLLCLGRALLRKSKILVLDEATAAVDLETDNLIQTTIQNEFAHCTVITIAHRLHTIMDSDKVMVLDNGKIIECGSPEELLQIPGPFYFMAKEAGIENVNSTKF
Experimental: (§2) In total, 0.5 mL of 0.05 mM MK-571 sodium salt, 0.1 mM verapamil, and 10 mM sodium azide were added to the AP side hole of the Transwell plate and incubated in a CO2 incubator for 30 min. After this incubation, the compounds were removed, the peptide was added to the AP side, and HBSS buffer was added to the BL side for 2 h.

P-glycoprotein = target: T3, P-glycoprotein (Homo sapiens, UniProt P08183); assay: Peptide efflux: verapamil pre-incubation; assay type: in vitro ADME; conditions: 0.1 mM verapamil, AP-BL, 2 h, vs blank
T3 construct: Multidrug resistance protein (MRP) and P-glycoprotein in Caco-2 cells are energy-dependent efflux transporters; endogenous in cells; host or cells: Caco-2
T3 sequence (P08183 whole entry): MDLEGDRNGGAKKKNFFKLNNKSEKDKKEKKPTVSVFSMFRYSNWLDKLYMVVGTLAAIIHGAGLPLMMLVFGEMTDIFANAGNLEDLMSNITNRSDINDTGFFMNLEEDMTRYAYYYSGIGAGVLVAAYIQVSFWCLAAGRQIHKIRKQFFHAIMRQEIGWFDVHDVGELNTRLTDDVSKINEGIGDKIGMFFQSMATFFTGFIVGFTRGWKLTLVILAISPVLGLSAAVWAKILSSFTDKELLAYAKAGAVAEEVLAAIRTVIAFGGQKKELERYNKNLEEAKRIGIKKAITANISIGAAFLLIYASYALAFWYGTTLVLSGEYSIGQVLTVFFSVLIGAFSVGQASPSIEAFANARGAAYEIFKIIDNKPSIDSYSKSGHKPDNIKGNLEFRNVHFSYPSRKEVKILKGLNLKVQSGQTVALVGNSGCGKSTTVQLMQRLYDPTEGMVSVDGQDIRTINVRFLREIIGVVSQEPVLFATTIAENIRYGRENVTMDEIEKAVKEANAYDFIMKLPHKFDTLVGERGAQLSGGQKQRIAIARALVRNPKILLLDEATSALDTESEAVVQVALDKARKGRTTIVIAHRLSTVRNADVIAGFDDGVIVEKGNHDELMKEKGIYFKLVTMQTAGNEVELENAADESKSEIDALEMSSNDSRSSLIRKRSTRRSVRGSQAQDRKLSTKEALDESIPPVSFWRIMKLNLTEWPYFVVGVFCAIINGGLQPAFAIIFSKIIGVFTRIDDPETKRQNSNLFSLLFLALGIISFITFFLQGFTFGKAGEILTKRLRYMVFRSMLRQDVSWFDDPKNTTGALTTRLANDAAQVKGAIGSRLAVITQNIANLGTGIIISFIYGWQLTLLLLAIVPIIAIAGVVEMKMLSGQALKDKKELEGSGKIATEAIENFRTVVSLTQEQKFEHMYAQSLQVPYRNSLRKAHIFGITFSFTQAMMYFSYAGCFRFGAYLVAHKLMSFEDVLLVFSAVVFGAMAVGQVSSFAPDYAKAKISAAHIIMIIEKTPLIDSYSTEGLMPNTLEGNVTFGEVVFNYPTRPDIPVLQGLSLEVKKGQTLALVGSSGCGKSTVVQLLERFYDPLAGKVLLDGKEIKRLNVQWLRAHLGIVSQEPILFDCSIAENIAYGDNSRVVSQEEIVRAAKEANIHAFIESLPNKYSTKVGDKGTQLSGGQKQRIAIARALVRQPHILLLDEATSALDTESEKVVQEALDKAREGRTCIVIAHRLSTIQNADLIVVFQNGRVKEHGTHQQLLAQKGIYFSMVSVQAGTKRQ
Experimental: as §2

Caco-2 cell monolayer [3] = assay: Peptide efflux: sodium azide pre-incubation (ATP production); assay type: in vitro ADME, human; conditions: 10 mM sodium azide, AP-BL, 2 h, vs blank
Experimental: as §2

Caco-2 cell monolayer [4] = assay: Transport assay on Caco-2 cell monolayer (Transwell, RP-HPLC quantification)
Experimental: (§3) Reverse phase high-performance liquid chromatography (RP-HPLC) was used to analyze the composition of peptides passed through the Caco-2 cell membrane. The elution parameters were as follows: the mobile phase B was ultra-pure water containing 0.1% Trifluoroacetic acid (TFA), and mobile phase A contained acetonitrile supplemented with 0.1% TFA. Adopting a gradient elution method, in detail, at 0.01 min, mobile phase A was 5%; at 25 min, mobile phase A was 70%. The absorbance of RP-HPLC was detected at 220 nm. The peak yields of the five electroactive peptides at the concentrations of 0.5 mM, 0.2 mM, 0.1 mM, 0.05 mM, and 0.025 mM were detected. The concentration was set as the abscissa and the peak area was set as the ordinate to draw the standard curves of the different peptide segments.
(§4) Caco-2 cells were maintained in an incubator at 37 °C, with 5% CO2 and relative humidity of 90% until the number of cells accounted for 80–90% of confluency [19]. After that, the medium was added to obtain a cellular suspension with 4 × 10^5 cells/mL, which was seeded on a 12-well Transwell plate added to the AP side of the 0.5 mL cell suspension, and the Basal lateral (BL) side by adding 1.5 mL of cell culture medium after one day after the exchange, Then, the fluid was changed every other day for 6 days, and the fluid was changed every day until the culture was completed. […] The main detection indicators were: (1) cell morphology observation; (2) the cell membrane compactness using fluorescent yellow test; (3) the detection of single-cell membrane resistance [20]; (4) alkaline phosphatase activities at the top and the basal side of the cell membrane were detected respectively to preliminarily determine the polarity of it.
(§5) The Papp formula of fluorescence is as follows:(2) Papp=dQ/dt/A×C0 where: C0—Initial concentration of fluorescent yellow (mg/mL); A—Membrane surface area (cm^2); dQ/dt—Transport of fluorescent yellow per unit time; Papp—Apparent permeability coefficient.

Caco-2 cell monolayer [5] = assay: Integrity of peptides after passing the Caco-2 monolayer (RP-HPLC, LC-MS/MS); assay type: in vitro ADME, human; conditions: for integrity of the peptide after passing through the Caco-2 cell membrane: RP-HPLC and LC/MS of BL-side liquid; for Concentration (ppm): peptide and fragments found by LC-MS in the liquid that passed the membrane, parents RYPLGYL, KHPIK, FFSDK
in vitro = conditions: human, Caco-2, pH 7.4
Experimental: as §3, §4, §5

Caco-2 cell monolayer [6] = test system: Caco-2 cell monolayer
Experimental: as §3, §4, §5

| Compound | main transport mechanism in intestinal epithelial cells (Caco-2 cell monolayer [2]) | integrity of the peptide after passing through the Caco-2 cell membrane (Caco-2 cell monolayer [5]) | Concentration (ppm) (Caco-2 cell monolayer [5]) | Papp A→B at 2 h, 5 mM (in vitro) [×10⁻⁶ cm/s] | other results |
| --- | --- | --- | --- | --- | --- |
| N[C@@H](Cc1ccc(O)cc1)C(=O)NCC(=O)NCC(=O)O [YGG, Tyr-Gly-Gly] (H-Tyr-Gly-Gly-OH; N-terminus and C-terminus assumed) | – | – | – | – | effect of Gly-Pro on transport to the BL side [1]: no significant differences; main transport mechanism in intestinal epithelial cells (Caco-2 cell monolayer [2]; Caco-2 monolayer): bypass diffusion; effect of MK-571 sodium salt on transmembrane transport (MRP2): no significant differences; effect of verapamil on transmembrane transport (P-glycoprotein): significantly promote; effect of sodium azide on concentration on the BL side (Caco-2 cell monolayer [3]): slightly higher |
| NNC(=O)NN1C(=O)c2cc(S(=O)(=O)[O-])cc3c(N)c(S(=O)(=O)[O-])cc(c23)C1=O.[Li+].[Li+] [fluorescence yellow] | – | – | – | – | Papp of fluorescence yellow (Caco-2 cell monolayer [4]; Caco-2 monolayer density check): 6.07e-07 cm/s; increase of transmittance (Caco-2 cell monolayer [4]; experimental group (Caco-2 monolayer), from 0.5 h to 2.5 h): 1.6% |
| FFSDK [FFSDK, Phe-Phe-Ser-Asp-Lys] | bypass diffusion | Most of the KHPIK and FFSDK were hydrolyzed into KHP and FFS | 2.59 | 0.491 | – |
| KHPIK [KHPIK, Lys-His-Pro-Ile- Lys] | bypass diffusion | Most of the KHPIK and FFSDK were hydrolyzed into KHP and FFS | 2.59 | 0.322 | amount across the membrane versus time (Caco-2 cell monolayer [6]; Caco-2): increased slowly; amount transported versus time (Caco-2 cell monolayer [6]; Caco-2): increased rapidly; transport quantity BL-AP side compared with AP-BL side (Caco-2 cell monolayer [6]; Caco-2): significantly lower; transmembrane transport capacity on the BL side (Caco-2 cell monolayer [6]; Caco-2, pH 6): 23.14 µM; transmembrane transport capacity on the BL side (Caco-2 cell monolayer [6]; Caco-2, pH 7): greater than 30.01 μM; transmembrane transport capacity on the BL side (Caco-2 cell monolayer [6]; Caco-2, pH 7.4): 44.35 µM |
| KHPIKH [KHPIKH, Lys-His-Pro-Ile-Lys-His] | bypass diffusion | – | – | 0.26 | – |
| RYPLGYL [RYPLGYL, Arg-Tyr-Pro-Leu-Gly-Tyr-Leu] | bypass diffusion | resistant to the enzymatic hydrolysis of intestinal epithelial cells | 10.74 | 0.161 | – |
